Data from PMC11062922 (Nature Chemical Biology, 2023).
Like-named read-outs stand apart in the source and are kept apart here.

Legend:
[1] = target: T1, ACOX1 (Homo sapiens, UniProt Q15067); experiment: Kinobeads two-dose competition binding: ACOX1; conditions: sheet CATDS matrix 2; Gene Name ACOX1;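 note: competition of compounds with immobilized broad-spectrum kinase inhibitor beads in cell lysate at 100 and 1,000 nM, 45 min at 4 °C, bead-bound protein quantified by label-free MS versus DMSO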
T1 construct: endogenous in cells
T1 sequence (Q15067 1-660): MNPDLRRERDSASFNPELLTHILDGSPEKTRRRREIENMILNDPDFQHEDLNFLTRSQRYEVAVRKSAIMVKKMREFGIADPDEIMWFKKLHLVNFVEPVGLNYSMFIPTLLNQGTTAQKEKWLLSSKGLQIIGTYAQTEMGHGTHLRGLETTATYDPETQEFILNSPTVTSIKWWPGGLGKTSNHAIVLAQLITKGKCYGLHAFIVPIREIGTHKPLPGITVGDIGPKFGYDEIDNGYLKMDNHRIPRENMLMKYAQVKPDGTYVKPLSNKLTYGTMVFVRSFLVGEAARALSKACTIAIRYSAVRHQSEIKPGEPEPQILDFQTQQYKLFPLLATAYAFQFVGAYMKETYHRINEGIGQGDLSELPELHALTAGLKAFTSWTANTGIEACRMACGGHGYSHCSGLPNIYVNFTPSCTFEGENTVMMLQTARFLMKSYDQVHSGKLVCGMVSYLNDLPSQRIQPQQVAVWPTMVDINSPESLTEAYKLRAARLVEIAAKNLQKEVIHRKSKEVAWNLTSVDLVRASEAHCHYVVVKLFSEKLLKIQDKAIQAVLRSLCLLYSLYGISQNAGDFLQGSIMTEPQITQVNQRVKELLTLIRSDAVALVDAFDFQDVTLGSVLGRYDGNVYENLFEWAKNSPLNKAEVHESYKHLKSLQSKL

[2] = target: T2, AAK1 (Homo sapiens, UniProt Q2M2I8); experiment: Kinobeads two-dose competition binding: AAK1; conditions: for CATDS: sheet CATDS matrix 2, Gene Name AAK1; for potency estimated from few doses: read-out: Kinobeads Drugmatrix - all: apparent Kd, AAK1;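 for all read-outs here: kinobeads competition pulldown from cell lysate, compound preincubated 45 min at 4 °C, bead-bound protein measured by label-free mass spectrometry against DMSO vehicle control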
T2 construct: to maximize the representation of endogenous proteins; endogenous in cells
T2 sequence (Q2M2I8 whole entry): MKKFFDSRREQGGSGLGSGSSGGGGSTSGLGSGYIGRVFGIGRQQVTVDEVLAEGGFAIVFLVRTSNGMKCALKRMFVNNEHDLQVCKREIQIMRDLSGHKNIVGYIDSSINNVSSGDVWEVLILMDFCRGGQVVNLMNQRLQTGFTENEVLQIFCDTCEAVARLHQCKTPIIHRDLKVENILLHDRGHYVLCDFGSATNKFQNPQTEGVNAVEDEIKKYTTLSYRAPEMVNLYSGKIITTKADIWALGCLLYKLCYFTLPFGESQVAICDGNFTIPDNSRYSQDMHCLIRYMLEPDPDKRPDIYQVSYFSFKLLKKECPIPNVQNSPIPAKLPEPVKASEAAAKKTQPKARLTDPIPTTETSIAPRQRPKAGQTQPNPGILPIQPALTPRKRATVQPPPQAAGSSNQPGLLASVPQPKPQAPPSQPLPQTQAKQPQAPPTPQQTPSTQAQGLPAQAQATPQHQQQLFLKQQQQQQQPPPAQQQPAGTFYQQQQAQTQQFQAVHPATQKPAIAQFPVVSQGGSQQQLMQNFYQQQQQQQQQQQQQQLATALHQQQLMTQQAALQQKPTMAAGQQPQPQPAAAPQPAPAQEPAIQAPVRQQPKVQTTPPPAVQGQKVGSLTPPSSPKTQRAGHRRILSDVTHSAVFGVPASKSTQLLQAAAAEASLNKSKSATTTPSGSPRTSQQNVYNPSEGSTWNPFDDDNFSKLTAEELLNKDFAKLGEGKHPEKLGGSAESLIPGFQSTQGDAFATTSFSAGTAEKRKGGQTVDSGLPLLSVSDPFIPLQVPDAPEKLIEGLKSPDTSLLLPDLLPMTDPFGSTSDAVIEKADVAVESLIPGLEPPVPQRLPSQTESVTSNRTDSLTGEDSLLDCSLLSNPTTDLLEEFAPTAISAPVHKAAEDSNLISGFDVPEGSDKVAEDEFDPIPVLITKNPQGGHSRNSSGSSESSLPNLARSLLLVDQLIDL

[3] = target: ABL1 (Homo sapiens, UniProt P00519); experiment: Kinobeads two-dose competition binding: ABL1; conditions: sheet CATDS matrix 2; Gene Name ABL1
Sequence of ABL1 (P00519 28-1130 limits assumed): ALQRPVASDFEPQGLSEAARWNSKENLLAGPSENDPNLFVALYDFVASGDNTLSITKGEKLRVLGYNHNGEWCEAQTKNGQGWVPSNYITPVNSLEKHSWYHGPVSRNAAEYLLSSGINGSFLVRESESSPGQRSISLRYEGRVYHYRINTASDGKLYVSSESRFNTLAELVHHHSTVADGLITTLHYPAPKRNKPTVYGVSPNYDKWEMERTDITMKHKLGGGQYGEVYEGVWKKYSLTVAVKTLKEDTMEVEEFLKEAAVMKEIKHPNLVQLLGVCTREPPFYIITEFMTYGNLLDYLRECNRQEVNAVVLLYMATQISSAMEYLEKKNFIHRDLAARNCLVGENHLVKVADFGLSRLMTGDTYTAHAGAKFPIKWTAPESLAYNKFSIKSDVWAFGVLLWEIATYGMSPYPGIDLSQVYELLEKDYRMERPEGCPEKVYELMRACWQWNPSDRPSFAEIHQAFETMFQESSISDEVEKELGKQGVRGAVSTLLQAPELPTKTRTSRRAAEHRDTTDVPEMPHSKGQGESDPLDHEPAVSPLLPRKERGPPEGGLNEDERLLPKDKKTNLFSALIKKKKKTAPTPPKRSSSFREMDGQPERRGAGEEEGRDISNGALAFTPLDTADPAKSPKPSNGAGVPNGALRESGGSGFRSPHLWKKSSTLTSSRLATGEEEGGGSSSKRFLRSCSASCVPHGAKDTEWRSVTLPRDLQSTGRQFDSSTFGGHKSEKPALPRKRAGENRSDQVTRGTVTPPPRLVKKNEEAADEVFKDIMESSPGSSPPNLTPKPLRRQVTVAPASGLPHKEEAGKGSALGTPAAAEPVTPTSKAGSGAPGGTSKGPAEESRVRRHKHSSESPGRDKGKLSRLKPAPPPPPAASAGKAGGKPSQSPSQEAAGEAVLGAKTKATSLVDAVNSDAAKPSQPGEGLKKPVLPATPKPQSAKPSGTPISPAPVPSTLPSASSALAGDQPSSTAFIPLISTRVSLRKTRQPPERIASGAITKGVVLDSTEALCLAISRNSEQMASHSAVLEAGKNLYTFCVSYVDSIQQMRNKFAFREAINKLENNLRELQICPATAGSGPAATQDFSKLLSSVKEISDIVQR

[4] = target: T3, ABL2 (Homo sapiens, UniProt P42684); experiment: Kinobeads two-dose competition binding: ABL2; conditions: sheet CATDS matrix 2; Gene Name ABL2
T3 construct: endogenous in cells
T3 sequence (P42684 whole entry): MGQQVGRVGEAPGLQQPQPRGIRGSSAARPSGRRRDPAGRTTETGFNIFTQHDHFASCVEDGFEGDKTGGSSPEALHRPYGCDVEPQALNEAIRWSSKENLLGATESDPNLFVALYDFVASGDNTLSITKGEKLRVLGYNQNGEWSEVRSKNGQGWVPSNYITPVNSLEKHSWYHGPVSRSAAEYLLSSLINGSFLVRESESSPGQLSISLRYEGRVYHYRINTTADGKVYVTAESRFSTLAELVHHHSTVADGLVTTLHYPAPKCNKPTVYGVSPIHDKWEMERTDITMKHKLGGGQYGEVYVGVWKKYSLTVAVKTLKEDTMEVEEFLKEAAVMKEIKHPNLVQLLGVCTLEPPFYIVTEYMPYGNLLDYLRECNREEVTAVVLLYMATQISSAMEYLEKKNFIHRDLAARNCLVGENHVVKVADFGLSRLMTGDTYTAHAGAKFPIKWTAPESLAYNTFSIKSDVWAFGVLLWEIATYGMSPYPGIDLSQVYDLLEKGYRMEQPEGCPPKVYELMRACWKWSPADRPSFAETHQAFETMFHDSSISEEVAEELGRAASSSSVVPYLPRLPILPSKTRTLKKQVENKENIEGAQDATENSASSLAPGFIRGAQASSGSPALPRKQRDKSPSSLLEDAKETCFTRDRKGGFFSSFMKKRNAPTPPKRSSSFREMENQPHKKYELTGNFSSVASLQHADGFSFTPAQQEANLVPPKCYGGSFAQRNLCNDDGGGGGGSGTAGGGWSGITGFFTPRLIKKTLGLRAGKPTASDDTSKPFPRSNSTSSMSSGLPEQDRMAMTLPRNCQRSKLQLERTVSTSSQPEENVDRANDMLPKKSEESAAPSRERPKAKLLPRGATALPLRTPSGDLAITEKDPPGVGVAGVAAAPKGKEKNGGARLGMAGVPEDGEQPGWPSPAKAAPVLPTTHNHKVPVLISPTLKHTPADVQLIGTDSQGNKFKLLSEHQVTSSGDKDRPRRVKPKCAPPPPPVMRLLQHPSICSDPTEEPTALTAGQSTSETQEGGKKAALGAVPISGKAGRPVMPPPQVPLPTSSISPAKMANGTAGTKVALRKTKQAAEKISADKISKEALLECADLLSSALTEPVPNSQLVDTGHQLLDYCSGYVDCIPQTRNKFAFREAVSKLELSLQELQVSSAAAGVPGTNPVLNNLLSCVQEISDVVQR

[5] = target: T4, ACAD11 (Homo sapiens, UniProt Q709F0); experiment: Kinobeads two-dose competition binding: ACAD11; conditions: sheet CATDS matrix 2; Gene Name ACAD11
T4 construct: endogenous in cells
T4 sequence (Q709F0 1-780): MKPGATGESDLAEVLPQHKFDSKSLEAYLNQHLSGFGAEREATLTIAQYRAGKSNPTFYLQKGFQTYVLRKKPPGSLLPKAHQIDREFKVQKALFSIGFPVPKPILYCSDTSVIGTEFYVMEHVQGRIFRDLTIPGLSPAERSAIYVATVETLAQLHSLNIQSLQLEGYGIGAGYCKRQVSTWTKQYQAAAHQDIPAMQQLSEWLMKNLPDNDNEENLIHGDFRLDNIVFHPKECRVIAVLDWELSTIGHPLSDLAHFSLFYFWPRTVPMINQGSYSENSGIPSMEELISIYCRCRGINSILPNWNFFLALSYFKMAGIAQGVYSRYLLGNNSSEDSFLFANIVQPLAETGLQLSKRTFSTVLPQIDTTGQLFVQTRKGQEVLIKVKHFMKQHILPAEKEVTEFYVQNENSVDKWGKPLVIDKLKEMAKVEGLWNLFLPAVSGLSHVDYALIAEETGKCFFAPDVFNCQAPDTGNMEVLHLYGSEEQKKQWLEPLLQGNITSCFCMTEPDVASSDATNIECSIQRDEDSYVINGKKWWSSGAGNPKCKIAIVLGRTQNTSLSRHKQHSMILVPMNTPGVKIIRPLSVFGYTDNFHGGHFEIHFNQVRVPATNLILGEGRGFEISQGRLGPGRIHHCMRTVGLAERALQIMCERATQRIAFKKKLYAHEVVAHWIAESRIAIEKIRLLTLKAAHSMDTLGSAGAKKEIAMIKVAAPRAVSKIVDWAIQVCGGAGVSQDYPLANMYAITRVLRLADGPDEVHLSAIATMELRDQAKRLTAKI

[6] = sheet "Kinobeads Drugmatrix - all", unit inferred, same values below 1000 recur in sheet "nanomolar"

C[C@@H]1CCCCN1c1cc(-c2ccc3c(N)n[nH]c3c2)nc(N)n1 [GSK2258759A]
0: CATDS [1] | CATDS [2] | CATDS [3] | CATDS [4] | CATDS [5]

Cn1cnc2c(F)c(Nc3ccc(Br)cc3F)c(C(=O)NOCCO)cc21 [Binimetinib, reference compound]
0: CATDS [1] | CATDS [2] | CATDS [3] | CATDS [4] | CATDS [5]

Cc1cnc(N)c(/C=C/c2cncc(C(=O)NCCc3ccc(Cl)cc3Cl)c2)c1 [GSK190937A]
0: CATDS [1] | CATDS [2] | CATDS [3] | CATDS [4] | CATDS [5]

Cc1ccc(C)c(NC(=O)NC2CCN(c3ccnc(Nc4ccc(F)cc4)n3)C2)c1 (stereo not drawn) [GSK1379720A]
0: CATDS [1] | CATDS [2] | CATDS [3] | CATDS [4] | CATDS [5]

O=c1cc(N2CCOCC2)nc2n(Cc3ccc(F)c(Cl)c3)ccn12 [GSK2297099A]
0: CATDS [1] | CATDS [2] | CATDS [3] | CATDS [4] | CATDS [5]

COc1ccc(C[C@@H](CN)NC(=O)c2cc(Br)c(-c3ccnc4[nH]ccc34)s2)cc1 [GSK1389063A]
0: CATDS [1] | CATDS [2] | CATDS [3] | CATDS [4] | CATDS [5]

COc1cc(Nc2nccc(N3CCC(NC(=O)c4cccc(NC(C)=O)c4)C3)n2)cc(OC)c1OC (stereo not drawn) [GSK1379754A]
410 nM: potency estimated from few doses [2, 6]
0.1752: CATDS [2]
0: CATDS [1] | CATDS [3] | CATDS [4] | CATDS [5]

CCCS(=O)(=O)Nc1ccc(F)c(-n2cc(-c3cncc(OC)c3)nn2)c1F [BI00865461]
0: CATDS [1] | CATDS [2] | CATDS [3] | CATDS [4] | CATDS [5]

Cc1cc(N2CCC(NS(=O)(=O)c3ccc(F)cc3)CC2)nc(Nc2cccc(C#N)c2)n1 [GSK1653537A]
0: CATDS [1] | CATDS [2] | CATDS [3] | CATDS [4] | CATDS [5]

COC(=O)C(NC(=O)NC1CCN(c2ccnc(Nc3ccc(F)cc3)n2)C1)c1ccccc1 (stereo not drawn) [GSK1379712_KCGS]
0: CATDS [1] | CATDS [2] | CATDS [3] | CATDS [4] | CATDS [5]

Cc1nn2c(=O)cc(N3CCOCC3)nc2n1Cc1cccc(Cl)c1Cl [GSK2342769A]
0: CATDS [1] | CATDS [2] | CATDS [3] | CATDS [4] | CATDS [5]

C[C@@H]1CCNC(=O)c2cc3ccc(C(=O)Nc4nc5ccccc5n4CCCN(C)C)cc3n21 [BI00645435]
0: CATDS [1] | CATDS [2] | CATDS [3] | CATDS [4] | CATDS [5]

Cc1cn2c(=O)cc(N3CCOCC3)nc2n1Cc1cccc(Cl)c1Cl [GSK2334006A]
0: CATDS [1] | CATDS [2] | CATDS [3] | CATDS [4] | CATDS [5]

Cc1c(Cn2c(C)nn3c(=O)cc(N4CCOC(C)C4)nc23)cccc1C(F)(F)F (stereo not drawn) [GSK2344444A]
0: CATDS [1] | CATDS [2] | CATDS [3] | CATDS [4] | CATDS [5]

Cc1cccc(Nc2nc(N[C@H]3CCNC3)ncc2C(N)=O)c1 [GSK2197149A]
0.1293: CATDS [2]
64.6 nM: potency estimated from few doses [2]
0: CATDS [1] | CATDS [3] | CATDS [4] | CATDS [5]

Cc1cccc(-c2cc(Nc3ccncc3)c3ccccc3n2)n1 [GSK223675A]
0: CATDS [1] | CATDS [2] | CATDS [3] | CATDS [4] | CATDS [5]

O=S(=O)(c1cccc2cnccc12)N1CCCNCC1 [Fasudil, reference compound]
0: CATDS [1] | CATDS [2] | CATDS [3] | CATDS [4] | CATDS [5]

O=C(c1ccc(F)c(F)c1Nc1ccc(I)cc1F)N1CC(O)([C@@H]2CCCCN2)C1 [Cobimetinib, reference compound]
0: CATDS [1] | CATDS [2] | CATDS [3] | CATDS [4] | CATDS [5]

CN(C)C(=O)/C(C#N)=C/c1ccc(-c2nc3cnc4[nH]ccc4c3n2C2CCCCC2)o1 [FM-381]
> 1000 nM: potency estimated from few doses [2, 6]
0: CATDS [1] | CATDS [2] | CATDS [3] | CATDS [4] | CATDS [5]

CCCc1cc(N2CCCN(C)CC2)nc2sc3c(N)ncnc3c12 [BI00604564]
0: CATDS [1] | CATDS [2] | CATDS [3] | CATDS [4] | CATDS [5]
> 1000 nM: potency estimated from few doses [2, 6]

COc1ccc(Nc2nccc(N3CCC(NC(=O)c4cccc(NC(C)=O)c4)C3)n2)cc1 (stereo not drawn) [GSK1379732A]
0: CATDS [1] | CATDS [2] | CATDS [3] | CATDS [4] | CATDS [5]

CNc1nc(-c2ccc3c(N)n[nH]c3c2)cc(N2C[C@@H](C(=O)Nc3ccccc3)CC[C@H]2C)n1 [GSK2298859A]
0: CATDS [1] | CATDS [2] | CATDS [3] | CATDS [4] | CATDS [5]

NCC(NC(=O)c1cc(-c2cn[nH]c2)c(-c2ccnc3[nH]ccc23)s1)c1ccccc1 (stereo not drawn) [GSK1325775A]
0: CATDS [1] | CATDS [2] | CATDS [3] | CATDS [4] | CATDS [5]
> 1000 nM: potency estimated from few doses [2, 6]

COc1ccc(Nc2nccc(-c3ccc(NC(=O)c4cc5cc(F)ccc5[nH]4)cc3)n2)cc1 [GSK1229496A]
0: CATDS [1] | CATDS [2] | CATDS [3] | CATDS [4] | CATDS [5]
> 1000 nM: potency estimated from few doses [2, 6]

CNc1cc(-c2ccc3c(N)n[nH]c3c2)nc(N)n1 [GSK2224810A]
0.04187: CATDS [2]
0: CATDS [1] | CATDS [3] | CATDS [4] | CATDS [5]

COc1ccc(Nc2nccc(N3CCC(NC(=O)c4cc5ccccc5s4)C3)n2)cc1 (stereo not drawn) [GSK1379738A]
0: CATDS [1] | CATDS [2] | CATDS [3] | CATDS [4] | CATDS [5]

C[C@H]1CC[C@@H](C(=O)Nc2ccccc2)CN1c1cc(-c2ccc3c(N)n[nH]c3c2)nc(N)n1 [GSK2283293_KCGS]
0: CATDS [1] | CATDS [2] | CATDS [3] | CATDS [4] | CATDS [5]

Nc1nc(-c2ccc3c(N)n[nH]c3c2)cc(N2CCCC(NC(=O)c3ccccc3)C2)n1 (stereo not drawn) [GSK2286775B]
0.05355: CATDS [2]
0: CATDS [1] | CATDS [3] | CATDS [4] | CATDS [5]

Cc1ccc(NC(=O)c2cccc(C#N)c2)cc1-c1ccc(C(=O)Nc2ccncc2)cc1 [GSK1398463A]
0: CATDS [1] | CATDS [2] | CATDS [3] | CATDS [4] | CATDS [5]

CC(C)C(=O)N[C@@H]1CCN(C(=O)Nc2nc3c(s2)-c2nc(-c4ccccc4Cl)ncc2CC3)C1 [BI00047804]
0: CATDS [1] | CATDS [2] | CATDS [3] | CATDS [4] | CATDS [5]
